{"source": "patent US11834428B2", "about": "“Dihydromyricetin nanocrystals and preparation method and application thereof” (Shaanxi University of Science and Technology, priority 2022, dated 2023)", "key": {"[1]": {"test": "Solubility of dihydromyricetin nanocrystals and API (solubility in cold water)", "format": "physicochemical", "conditions": "for solubility: cold water", "excerpt": "1. The Effect of Stabilizers on the Particle Size and Solubilization Effect of the Dihydromyricetin Nanocrystals, See Table 1."}, "[2]": {"test": "Particle size of dihydromyricetin nanocrystals", "format": "physicochemical", "conditions": "API", "procedure": "In order to describe the dihydromyricetin nanocrystals provided by the disclosure, the relevant properties of the embodiments 1 to 6 and the comparative embodiments are measured. 1. The Effect of Stabilizers on the Particle Size and Solubilization Effect of the Dihydromyricetin Nanocrystals, See Table 1."}}}
{"smiles": "O=C1c2c(O)cc(O)cc2O[C@H](c2cc(O)c(O)c(O)c2)[C@H]1O", "note": "[Dihydromyricetin API, Dihydromyricetin]", "values": [{"measurement": "solubility", "setting": "[1]; aqueous with cosolvent or surfactant or cyclodextrin, stabilizer sodium dodecyl sulfate (SDS)", "value": 300, "unit": "µg/mL"}, {"measurement": "solubility", "setting": "[1]; water, no stabilizer (/)", "value": 40, "unit": "µg/mL"}, {"measurement": "Solubility in cold water", "setting": "[1]; stabilizer Tween-80", "value": 600, "unit": "µg/mL"}, {"measurement": "Particle size", "setting": "[2]", "value": "≥12", "unit": "μm"}]}
